Measured values taken from ChEMBL document CHEMBL3885881, “DrugMatrix”.

Species: Rattus norvegicus
Experiment: DrugMatrix - Regimen: Daily Repeat
Format: toxicity, organism-based, Sprague-Dawley
Design: regimen Daily Repeat, gender Male, age 6-8 weeks
Conditions: in vivo, po, route oral GAVAGE, […]; for ABSOLUTE BASOPHIL / ABSOLUTE EOSINOPHIL / ABSOLUTE LYMPHOCYTE / ABSOLUTE MONOCYTE / ABSOLUTE SEGMENTED NEUTROPHIL / BASOPHIL / EOSINOPHIL / ERYTHROCYTE COUNT / HEMATOCRIT / HEMOGLOBIN / LEUKOCYTE COUNT / LYMPHOCYTE / MEAN CORPUSCULAR HEMOGLOBIN / MEAN CORPUSCULAR HEMOGLOBIN CONCENTRATION / MEAN CORPUSCULAR VOLUME / MONOCYTE / NEUTROPHIL / NUCLEATED RED BLOOD CELLS / PLATELET COUNT: tissue Blood; for ALANINE AMINOTRANSFERASE / ALBUMIN / ALKALINE PHOSPHATASE / ASPARTATE AMINOTRANSFERASE / BLOOD UREA NITROGEN / CARBON DIOXIDE / CHLORIDE / CHOLESTEROL / CREATININE / GLUCOSE / LACTATE DEHYDROGENASE / LIPASE / PHOSPHORUS / POTASSIUM / SODIUM / TOTAL BILIRUBIN / TOTAL PROTEIN / URIC ACID: tissue Plasma
[1] = 250 mg/kg, 120 h, dose level Low, time 5 day
[2] = 500 mg/kg, 72 h, dose level High, time 3 day
[3] = 500 mg/kg, 120 h, dose level High, time 5 day

For `CC(C)Cc1ccc(CC(=O)O)cc1` [IBUFENAC], which “ABSOLUTE BASOPHIL” value [1] is on record?
Its value is 0 CELLS/uL.

What about the “ABSOLUTE EOSINOPHIL” value [1] of the same molecule?
Its value is 236.67 CELLS/uL.

What about the “ABSOLUTE LYMPHOCYTE” value [1] of the same molecule?
Its value is 15018.67 CELLS/uL.

What about the “ABSOLUTE MONOCYTE” value [1] of the same molecule?
The value was 455.33 CELLS/uL.

And the “ABSOLUTE SEGMENTED NEUTROPHIL” value [1]?
Its value is 1489.33 CELLS/uL.

What about the BASOPHIL [1] of the same molecule?
The BASOPHIL was 0%.

And the EOSINOPHIL [1]?
Its EOSINOPHIL is 1.33%.

And the “ERYTHROCYTE COUNT” value [1]?
The value was 5.48 x10E6/uL.

And the HEMATOCRIT [1]?
The HEMATOCRIT was 33.63%.

What about the HEMOGLOBIN [1] of the same molecule?
Its HEMOGLOBIN is 12.33 G/DL.

What about the “LEUKOCYTE COUNT” value [1] of the same molecule?
Its value is 17.2 x10E3/uL.

What about the LYMPHOCYTE [1] of the same molecule?
The LYMPHOCYTE was 87.33%.

And the “MEAN CORPUSCULAR HEMOGLOBIN” value [1]?
The value was 22.5 pg.

And the “MEAN CORPUSCULAR HEMOGLOBIN CONCENTRATION” value [1]?
The value was 36.67 G/DL.

What about the “MEAN CORPUSCULAR VOLUME” value [1] of the same molecule?
The value was 61.4 fL.

What about the MONOCYTE [1] of the same molecule?
Its MONOCYTE is 2.67%.

What about the NEUTROPHIL [1] of the same molecule?
The NEUTROPHIL was 8.67%.

What about the “NUCLEATED RED BLOOD CELLS” value [1] of the same molecule?
The value was 0 /100WBC.

What about the “PLATELET COUNT” value [1] of the same molecule?
The value was 1124.33 x10E3/uL.

What about the “ALANINE AMINOTRANSFERASE” value [1] of the same molecule?
Its value is 50 u/L.

What about the ALBUMIN [1] of the same molecule?
The ALBUMIN was 4.2 G/DL.

What about the “ALKALINE PHOSPHATASE” value [1] of the same molecule?
The value was 391.33 u/L.

And the “ASPARTATE AMINOTRANSFERASE” value [1]?
Its value is 81 u/L.

What about the “BLOOD UREA NITROGEN” value [1] of the same molecule?
The value was 16 mg/dL.

What about the “CARBON DIOXIDE” value [1] of the same molecule?
Its value is 28.33 mmol/L.

What about the CHLORIDE [1] of the same molecule?
The CHLORIDE was 100.33 MEQ/L.

And the CHOLESTEROL [1]?
The CHOLESTEROL was 53.33 mg/dL.

And the CREATININE [1]?
Its CREATININE is 0.16 mg/dL.

And the GLUCOSE [1]?
The GLUCOSE was 167.33 mg/dL.

And the “LACTATE DEHYDROGENASE” value [1]?
The value was 230 u/L.

And the LIPASE [1]?
Its LIPASE is 9 u/L.

And the PHOSPHORUS [1]?
Its PHOSPHORUS is 12.77 mg/dL.

And the POTASSIUM [1]?
Its POTASSIUM is 6.45 MEQ/L.

What about the SODIUM [1] of the same molecule?
Its SODIUM is 142.9 MEQ/L.

And the “TOTAL BILIRUBIN” value [1]?
The value was 0.13 mg/dL.

What about the “TOTAL PROTEIN” value [1] of the same molecule?
Its value is 6 G/DL.

And the “URIC ACID” value [1]?
Its value is 1.5 mg/dL.

And the “ABSOLUTE BASOPHIL” value [2]?
The value was 0 CELLS/uL.

And the “ABSOLUTE EOSINOPHIL” value [2]?
Its value is 218.33 CELLS/uL.

What about the “ABSOLUTE LYMPHOCYTE” value [2] of the same molecule?
The value was 13655.67 CELLS/uL.

And the “ABSOLUTE MONOCYTE” value [2]?
Its value is 429.67 CELLS/uL.

What about the “ABSOLUTE SEGMENTED NEUTROPHIL” value [2] of the same molecule?
The value was 2263 CELLS/uL.

What about the BASOPHIL [2] of the same molecule?
Its BASOPHIL is 0%.

And the EOSINOPHIL [2]?
The EOSINOPHIL was 1.33%.

What about the “ERYTHROCYTE COUNT” value [2] of the same molecule?
The value was 5.57 x10E6/uL.

What about the HEMATOCRIT [2] of the same molecule?
Its HEMATOCRIT is 35.13%.

What about the HEMOGLOBIN [2] of the same molecule?
Its HEMOGLOBIN is 12.77 G/DL.

What about the “LEUKOCYTE COUNT” value [2] of the same molecule?
The value was 16.57 x10E3/uL.

And the LYMPHOCYTE [2]?
Its LYMPHOCYTE is 82.67%.

What about the “MEAN CORPUSCULAR HEMOGLOBIN” value [2] of the same molecule?
Its value is 22.97 pg.

And the “MEAN CORPUSCULAR HEMOGLOBIN CONCENTRATION” value [2]?
The value was 36.33 G/DL.

What about the “MEAN CORPUSCULAR VOLUME” value [2] of the same molecule?
Its value is 63.13 fL.

And the MONOCYTE [2]?
The MONOCYTE was 2.67%.

And the NEUTROPHIL [2]?
Its NEUTROPHIL is 13.33%.

What about the “NUCLEATED RED BLOOD CELLS” value [2] of the same molecule?
The value was 0 /100WBC.

What about the “PLATELET COUNT” value [2] of the same molecule?
The value was 1113.33 x10E3/uL.

And the “ALANINE AMINOTRANSFERASE” value [2]?
Its value is 92.33 u/L.

What about the ALBUMIN [2] of the same molecule?
The ALBUMIN was 4.4 G/DL.

And the “ALKALINE PHOSPHATASE” value [2]?
Its value is 526.33 u/L.

And the “ASPARTATE AMINOTRANSFERASE” value [2]?
The value was 107.33 u/L.

What about the “BLOOD UREA NITROGEN” value [2] of the same molecule?
The value was 14 mg/dL.

What about the “CARBON DIOXIDE” value [2] of the same molecule?
The value was 27.33 mmol/L.

What about the CHLORIDE [2] of the same molecule?
The CHLORIDE was 103.67 MEQ/L.

And the CHOLESTEROL [2]?
The CHOLESTEROL was 57 mg/dL.

And the CREATININE [2]?
Its CREATININE is 0.24 mg/dL.

What about the GLUCOSE [2] of the same molecule?
Its GLUCOSE is 142.67 mg/dL.

What about the “LACTATE DEHYDROGENASE” value [2] of the same molecule?
Its value is 159 u/L.

What about the LIPASE [2] of the same molecule?
Its LIPASE is 9.67 u/L.

And the PHOSPHORUS [2]?
Its PHOSPHORUS is 12.2 mg/dL.

And the POTASSIUM [2]?
The POTASSIUM was 7.03 MEQ/L.

And the SODIUM [2]?
Its SODIUM is 148.07 MEQ/L.

And the “TOTAL BILIRUBIN” value [2]?
The value was 0.2 mg/dL.

And the “TOTAL PROTEIN” value [2]?
Its value is 5.93 G/DL.

What about the “URIC ACID” value [2] of the same molecule?
The value was 1.43 mg/dL.

And the “ABSOLUTE BASOPHIL” value [3]?
The value was 0 CELLS/uL.

And the “ABSOLUTE EOSINOPHIL” value [3]?
Its value is 195.6 CELLS/uL.

What about the “ABSOLUTE LYMPHOCYTE” value [3] of the same molecule?
The value was 15442.4 CELLS/uL.

What about the “ABSOLUTE MONOCYTE” value [3] of the same molecule?
Its value is 503.4 CELLS/uL.

And the “ABSOLUTE SEGMENTED NEUTROPHIL” value [3]?
The value was 1838.6 CELLS/uL.

And the BASOPHIL [3]?
The BASOPHIL was 0%.

What about the EOSINOPHIL [3] of the same molecule?
The EOSINOPHIL was 1%.

What about the “ERYTHROCYTE COUNT” value [3] of the same molecule?
Its value is 5.64 x10E6/uL.

What about the HEMATOCRIT [3] of the same molecule?
Its HEMATOCRIT is 33.38%.

And the HEMOGLOBIN [3]?
The HEMOGLOBIN was 12.04 G/DL.

What about the “LEUKOCYTE COUNT” value [3] of the same molecule?
The value was 17.98 x10E3/uL.

What about the LYMPHOCYTE [3] of the same molecule?
Its LYMPHOCYTE is 86.6%.

And the “MEAN CORPUSCULAR HEMOGLOBIN” value [3]?
Its value is 21.36 pg.

What about the “MEAN CORPUSCULAR HEMOGLOBIN CONCENTRATION” value [3] of the same molecule?
The value was 36.1 G/DL.

And the “MEAN CORPUSCULAR VOLUME” value [3]?
Its value is 59.2 fL.

And the MONOCYTE [3]?
Its MONOCYTE is 2.8%.

What about the NEUTROPHIL [3] of the same molecule?
Its NEUTROPHIL is 9.6%.

And the “NUCLEATED RED BLOOD CELLS” value [3]?
The value was 0 /100WBC.

And the “PLATELET COUNT” value [3]?
Its value is 1278.6 x10E3/uL.

What about the “ALANINE AMINOTRANSFERASE” value [3] of the same molecule?
The value was 66 u/L.

What about the ALBUMIN [3] of the same molecule?
Its ALBUMIN is 4.06 G/DL.

What about the “ALKALINE PHOSPHATASE” value [3] of the same molecule?
The value was 384.8 u/L.

What about the “ASPARTATE AMINOTRANSFERASE” value [3] of the same molecule?
Its value is 92.4 u/L.

What about the “BLOOD UREA NITROGEN” value [3] of the same molecule?
Its value is 12.8 mg/dL.

What about the “CARBON DIOXIDE” value [3] of the same molecule?
Its value is 25.8 mmol/L.

What about the CHLORIDE [3] of the same molecule?
The CHLORIDE was 102.2 MEQ/L.

And the CHOLESTEROL [3]?
The CHOLESTEROL was 54.2 mg/dL.

What about the CREATININE [3] of the same molecule?
Its CREATININE is 0.16 mg/dL.

What about the GLUCOSE [3] of the same molecule?
Its GLUCOSE is 152.8 mg/dL.

What about the “LACTATE DEHYDROGENASE” value [3] of the same molecule?
The value was 132.4 u/L.

And the LIPASE [3]?
Its LIPASE is 9 u/L.

What about the PHOSPHORUS [3] of the same molecule?
Its PHOSPHORUS is 12.02 mg/dL.

And the POTASSIUM [3]?
Its POTASSIUM is 6.28 MEQ/L.

And the SODIUM [3]?
The SODIUM was 142.86 MEQ/L.

And the “TOTAL BILIRUBIN” value [3]?
The value was 0.14 mg/dL.

What about the “TOTAL PROTEIN” value [3] of the same molecule?
Its value is 5.54 G/DL.

What about the “URIC ACID” value [3] of the same molecule?
The value was 1.78 mg/dL.
